Data from patent publication US20200093801A1, “NEW METHODS FOR THE TREATMENT OF MULTIPLE SCLEROSIS” (Novartis AG, priority 2017, published 2020).
Entries after “also recorded” stand apart in the source; their conditions may differ.

Tests used:
[1] = system: MOG Peptide-Induced EAE; assay: MOG peptide-induced EAE; type: in vivo, Mice (C57BL/6J OlaHsd); settings: 100 and 150 mg/kg p.o. qd, day 14 to day 28 post-immunization; compared to vehicle
Protocol: Mice (C57BL/6J OlaHsd) were commercially purchased from Harlan Laboratories BV (9 weeks old, females). All the animals were allowed to adapt for 7 days prior the start of the experiment and housed in IVC racks (max. 4 mice/XJ Type cage). The animals were given access to food and water ad libitum. Mice were immunized at with subcutaneous injection on the lower back of myelin oligodendrocyte glycoprotein peptide ([…]; in house produced; 200 μg/100 emulsified in 4 mg/ml complete Freund adjuvant (CFA, Sigma). Pertussis toxin (Fluka; 200 ng per mouse) was administered intraperitoneally on day 0 and day 2. Evaluation of EAE: The mice were observed and weighed daily. They were assessed for clinical signs on a scale from 0 to 5, with graduations of 0.5 for intermediate scores. 0: no clinical signs, 1: Limp tail/complete loss of tail tonus; 2: Clear hind limb weakness; 3: Complete bilateral hind limb paralysis; 4: Fore limbs and hind limbs paralysis; 5: Death. Supplementary food and gel food were provided inside the cage once first clinical signs appeared. Animals were treated for 14 days with 100 and 150 mg/kg of BLZ945, qd, p.o. 10 ml/kg from day 14 to day 28 post-immunization. BLZ945 was prepared in 0.5% methylcellulose in water and 0.1% Tween-80.

[2] = system: Cuprizone-Induced Demyelination in Mice; assay: Cuprizone-induced demyelination in mice, brain histology / immunohistochemistry (169 mg/kg); type: in vivo, Mice (C57BL/6J); settings: 169 mg/kg p.o. qd, 2 weeks after 5 weeks 0.2% cuprizone
Text: Studies described below were approved by the Swiss Cantonal Veterinary Authority of Basel City, Switzerland, under the license number 2711. Mice (C57BL/6J) were commercially purchased from Charles River Laboratories, Germany or obtained from Novartis Pharma AG breeding colonies (8-9 weeks old, females). All the animals were allowed to adapt for 7 days prior the start of the experiment and housed in IVC racks (max. 4 mice/XJ Type cage). The animals were given access to food and water ad libitum. Animals were treated with cuprizone for 5 weeks. Cuprizone (Bis(cyclohexanone)oxaldihydrazone, Sigma-Aldrich) was mixed into rodent food pellets (0.2% w/w) by Provimi Kliba AG, Switzerland. Therapeutic treatment of animals after cuprizone was performed for 2 weeks on normal food with 169 mg/kg of BLZ945, qd, p.o. 10 ml/kg. BLZ945 was prepared in vehicle consisting of 0.5% methylcellulose in water and 0.1% Tween-80. Before killing 3 h after last BLZ945 dosing animals were perfused transcardially by phosphate-buffered saline (PBS), brains isolated and fixed in 4% paraformaldehyde (PFA) for 48 h at 4° C. After fixation brains were processed for paraffin embedding by dehydration through increasing ethanol series. Automated immunohistochemistry of paraffin sections was performed on 3 μm paraffin sections mounted on SuperFrost+ slides and automatically immunostained using the Discovery XT technology (Ventana/Roche Diagnostics). Briefly, sections were deparaffinized, rehydrated, subjected to antigen retrieval by heating with CC1 cell conditioning buffer, incubated for 1-3 hours at room temperature with primary antibody diluted in antibody diluent, incubated with the respective biotinylated secondary antibody diluted in antibody dilution, reacted with DABMab kit and counterstained with Hematoxylin II and Bluing Agent reagent (Ventana/Roche Diagnostics). Slides were washed with soap in hot tap water and rinsed under cold running tap water to remove the soap, then dehydrated and embedded with Pertex. Manual immunofluorescence staining of paraffin sections was performed on 3 μm paraffin sections. They were de-waxed and subjected to antigen retrieval (exception: GST-π) by microwaving for 15-20 minutes at 98° C. in 0.1 M citrate buffer pH 6.0 (quartett 400300692), the jar with slides were cooled to room temperature for 20-25 min and rinsed in 1×TBS (cell signaling 12498S) twice for 3 min. Endogenous peroxidase was quenched with Perox Block (Dako S2023) for 10 min, sections then washed with 1×TBS twice for 3 min and blocking with 10% normal goat serum (Dako X0907) in 1×TBS for 20 min performed. Sections were then incubated without rinsing with primary antibody for 60 min (MBP) or overnight (GST-pi, MOG) at room temperature. Sections were then washed in 1×TBS twice for 3 min and then incubated with secondary antibody for 30 min at room temperature. Sections were then washed with 1×TBS twice for 3 min and incubated with Vectastain ABC Elite Kit (Vector PK6100) for 30 min at room temperature, washed with 1×TBS twice for 3 min, incubated with DAB solution (Dako K3468) for 1-5 min. Sections were finally washed with distilled water twice for 2 min, counterstained with Hematoxylin (Dako S2020) for 3 min, again washed with running tap water for 5 min, dehydrated and embedded in Pertex. […]

[3] = compared to control (normal food)

CNC(=O)c1cc(Oc2ccc3nc(N[C@@H]4CCCC[C@H]4O)sc3c2)ccn1 [BLZ945, 4-(2-((1R,2R)-2-hydroxycyclohexylamino)benzothiazol-6-yloxy)-N-methylpicolinamide]
EAE clinical score / disease progression [1]: did not alter disease progression; also recorded: No difference | EAE disease onset/incidences [1]: similar | Weight change in EAE mice [1]: similar | Iba1+ microglia number compared to control, cortex [2, 3]: lower number of Iba1+ microglia | Iba1+ microglia number compared to control, striatum [2, 3]: lower number of Iba1+ microglia | GFAP-positive astrocytes (stained area), all brain areas ([2]; compared to vehicle): enhances astrocytes; also recorded: even further increases astrocyte numbers; also recorded: substantially higher in cortex and striatum than it is in the corpus callosum | Iba1-positive microglia numbers, all brain areas analyzed (cortex, striatum, corpus callosum) ([2]; compared to vehicle treated animals): reduces microglia numbers; also recorded: significantly reducing this increase compared to vehicle treated animals | GST-π positive mature oligodendrocytes (number of positive cells), cortex ([2]; immunohistochemistry): increases oligodendrocyte numbers; also recorded: did not reach control levels; also recorded: significantly increased after BLZ945 treatment compared to vehicle control | GST-π positive mature oligodendrocytes (number of positive cells), striatum ([2]; immunohistochemistry): increases oligodendrocyte numbers; also recorded: significantly increased after BLZ945 treatment compared to vehicle control; also recorded: did not reach control levels | Myelin basic protein (MBP) stained area, cortex ([2]; immunohistochemistry): enhances remyelination; also recorded: did not reach control levels; also recorded: significantly increased after BLZ945 treatment compared to vehicle control | Myelin basic protein (MBP) stained area, striatum ([2]; immunohistochemistry): enhances remyelination; also recorded: did not reach control levels; also recorded: significantly increased after BLZ945 treatment compared to vehicle control | GST-π positive oligodendrocytes, corpus callosum ([2]; vs cuprizone vehicle): not corpus callosum; also recorded: no difference | Luxol fast blue (LFB) optical density, corpus callosum ([2]; vs cuprizone vehicle): no difference | Myelin oligodendrocyte glycoprotein (MOG) optical density, corpus callosum ([2]; vs cuprizone vehicle): not corpus callosum; also recorded: no difference
